Results published in US4443436A, “C-20-Modified macrolide derivatives of the macrolide antibiotics tylosin, desmycosin, macrocin, and lactenocin” (Eli Lilly and Company, priority 1982, dated 1984).
≈ marks a conversion by molar mass, not a printed value. Read-outs that look alike come from different tables or passages of the source.

Key:
[1] = tested on: Staphylococcus aureus X1.1; experiment: MIC, standard agar-dilution assay, Staphylococcus aureus X1.1; format: cell-based; conditions: Staphylococcus aureus, X1.1
[2] = tested on: Staphylococcus aureus V41; experiment: MIC, standard agar-dilution assay, Staphylococcus aureus V41; format: cell-based; conditions: Staphylococcus aureus, V41
[3] = tested on: Staphylococcus aureus X400; experiment: MIC, standard agar-dilution assay, Staphylococcus aureus X400; format: cell-based
[4] = tested on: Staphylococcus aureus S13E; experiment: MIC, standard agar-dilution assay, Staphylococcus aureus S13E; format: cell-based; conditions: Staphylococcus aureus, S13E
[5] = tested on: Staphylococcus epidermidis EPI1; experiment: MIC, standard agar-dilution assay, Staphylococcus epidermidis EPI1; format: cell-based
[6] = tested on: Staphylococcus epidermidis EPI2; experiment: MIC, standard agar-dilution assay, Staphylococcus epidermidis EPI2; format: cell-based
[7] = tested on: Streptococcus pyogenes C203; experiment: MIC, standard agar-dilution assay, Streptococcus pyogenes C203; format: cell-based
[8] = tested on: Streptococcus pneumoniae Park I; experiment: microbe, parasite or virus in culture; format: cell-based
[9] = tested on: Streptococcus Group D X66; experiment: MIC, standard agar-dilution assay, Streptococcus Group D X66; format: cell-based
Streptococcus Group 9960 = experiment: MIC, standard agar-dilution assay, Streptococcus Group 9960; format: cell-based; conditions: GROUP9960
[10] = tested on: Haemophilus influenzae Holt; experiment: MIC, standard agar-dilution assay, Haemophilus influenzae Holt; format: cell-based
[11] = tested on: Haemophilus influenzae R252; experiment: MIC, standard agar-dilution assay, Haemophilus influenzae R252; format: cell-based
Staphylococcus aureus = experiment: MIC, broth-dilution microtiter test, Staphylococcus aureus; format: cell-based
Text: (§1) The MIC's in Table X were obtained using conventional broth-dilution microtiter tests.

Streptococcus bovis 80 = experiment: MIC, broth-dilution microtiter test, Streptococcus bovis 80; format: cell-based; conditions: Streptococcus equinus; Streptococcus bovis 80; broth-dilution microtiter; read-out: MIC
Text: as §1

[12] = tested on: Pasteurella multocida 17E; experiment: MIC, broth-dilution microtiter test, Pasteurella multocida 17E; format: cell-based; conditions: Pasteurella multocida 17E; bovine isolate; broth-dilution microtiter; read-out: MIC
Text: as §1

[13] = tested on: Pasteurella multocida 60A; experiment: MIC, broth-dilution microtiter test, Pasteurella multocida 60A; format: cell-based
Text: as §1

[14] = tested on: Pasteurella hemolytica 22C; experiment: MIC, broth-dilution microtiter test, Pasteurella hemolytica 22C; format: cell-based
Text: as §1

Mycoplasma gallisepticum = experiment: MIC, broth-dilution microtiter test, Mycoplasma gallisepticum; format: cell-based; conditions: Mycoplasmoides gallisepticum
Text: as §1

Mycoplasma synoviae = experiment: MIC, broth-dilution microtiter test, Mycoplasma synoviae; format: cell-based; conditions: Mycoplasmopsis synoviae
Text: as §1

Mycoplasma hyorhinis = experiment: MIC, broth-dilution microtiter test, Mycoplasma hyorhinis; format: cell-based
Text: as §1

Mycoplasma hyopneumoniae = experiment: MIC, broth-dilution microtiter test, Mycoplasma hyopneumoniae; format: cell-based; conditions: Mesomycoplasma hyopneumoniae
Text: as §1

[15] = tested on: Streptococcus pyogenes C203; experiment: In vivo protection of mice experimentally infected with S. pyogenes C203; conditions: Streptococcus pyogenes, mice, doses given 1 and 4 hours post-infection
Procedure: The C-20 modified derivatives of this invention have shown in vivo antimicrobial activity against experimentally-induced infections in laboratory animals. When two doses of test compound were administered to mice experimentally infected with S. pyogenes C203, the activity observed was measured as an ED50 value [effective dose in mg/kg to protect 50% of the test animals: see Warren Wick, et al., J. Bacteriol. 81, 233-235 (1961)].

[16] = Staphylococcus epidermidis, EPI1
[17] = Staphylococcus epidermidis, EPI2
[18] = Streptococcus pneumoniae Park I, agar dilution, read-out: MIC
[19] = Streptococcus Group 9960, agar dilution, read-out: MIC
[20] = Haemophilus influenzae Holt, ampicillin-sensitive strain, read-out: MIC
[21] = Haemophilus influenzae R252, ampicillin-resistant strain, read-out: MIC
[22] = Pasteurella multocida 60A, avian isolate, broth-dilution microtiter, read-out: MIC
[23] = Pasteurella hemolytica 22C, broth-dilution microtiter, read-out: MIC
[24] = Mycoplasma hyorhinis, broth-dilution microtiter, read-out: MIC
[25] = Streptococcus pyogenes C203, agar dilution, read-out: MIC
[26] = broth-dilution microtiter, read-out: MIC
[27] = Mycoplasma gallisepticum, broth-dilution microtiter, read-out: MIC
[28] = Mycoplasma hyopneumoniae, broth-dilution microtiter, read-out: MIC
[29] = Streptococcus Group D X66, agar dilution, read-out: MIC
[30] = Mycoplasma synoviae, broth-dilution microtiter, read-out: MIC

SMILES | MIC [1] | MIC [2] | MIC ([3]; Staphylococcus aureus, X400) | MIC [4] | MIC [5, 16] | MIC [6, 17] | MIC [8, 18] | MIC (Streptococcus Group 9960; [19]) | MIC [10, 20] | MIC [11, 21] | MIC (Staphylococcus aureus) | MIC (Streptococcus bovis 80) | MIC [12] | MIC [13, 22] | MIC [14, 23] | MIC (Mycoplasma gallisepticum) | MIC (Mycoplasma synoviae) | MIC [7, 25] | MIC (Mycoplasma hyopneumoniae; [28]) | MIC [9, 29] | other results
CCC1OC(=O)CC(O)C(C)C(OC2OC(C)C(OC3CC(C)(O)C(O)C(C)O3)C(N(C)C)C2O)C(CCOc2ccc(C=O)cc2)CC(C)C(=O)C=CC(C)=CC1COC1OC(C)C(O)C(OC)C1OC (stereo not shown) [Compound 17, 20-DH-20-O-(p-Formylphenyl)tylosin] | 1 µg/mL (≈ 0.978 µM) | 1 µg/mL (≈ 0.978 µM) | 2 µg/mL (≈ 1.96 µM) | 1 µg/mL (≈ 0.978 µM) | 1 µg/mL (≈ 0.978 µM) | 0.5 µg/mL (≈ 0.489 µM) | 16 µg/mL (≈ 15.7 µM) | > 128 µg/mL | > 128 µg/mL | > 128 µg/mL | 1.56 µg/mL (≈ 1.53 µM) | 50 µg/mL (≈ 48.9 µM) | > 50 µg/mL | > 50 µg/mL | > 50 µg/mL | 0.78 µg/mL (≈ 0.763 µM) | 6.25 µg/mL (≈ 6.11 µM) | – | – | – | MIC ([7]; Streptococcus pyogenes, C203): 1 µg/mL (≈ 0.978 µM); MIC [9]: 128 µg/mL (≈ 125 µM); MIC (Mycoplasma hyorhinis; [24]): > 50 µg/mL; MIC (Mycoplasma hyopneumoniae): > 25 µg/mL
CCC1OC(=O)CC(O)C(C)C(OC2OC(C)C(OC3CC(C)(O)C(O)C(C)O3)C(N(C)C)C2O)C(CCOc2ccc(C(=O)c3ccccc3)cc2)CC(C)C(=O)C=CC(C)=CC1COC1OC(C)C(O)C(OC)C1OC (stereo not shown) [Compound 13, 20-DH-20-O-(p-Benzoylphenyl)tylosin] | 1 µg/mL (≈ 0.91 µM) | 1 µg/mL (≈ 0.91 µM) | 4 µg/mL (≈ 3.64 µM) | 1 µg/mL (≈ 0.91 µM) | – | 1 µg/mL (≈ 0.91 µM) | – | – | – | > 128 µg/mL | – | 1.56 µg/mL (≈ 1.42 µM) | > 50 µg/mL | > 50 µg/mL | > 50 µg/mL | – | 6.25 µg/mL (≈ 5.69 µM) | 2 µg/mL (≈ 1.82 µM) | 3.12 µg/mL (≈ 2.84 µM) | – | MIC ([5]; Staphylococcus epidermidis EPI1, agar dilution, read-out: MIC): 2 µg/mL (≈ 1.82 µM); MIC ([8]; Streptococcus pneumoniae): 1 µg/mL (≈ 0.91 µM); MIC [9]: 4 µg/mL (≈ 3.64 µM); MIC (Streptococcus Group 9960): 4 µg/mL (≈ 3.64 µM); MIC ([10]; Haemophilus influenzae): > 128 µg/mL; MIC (Staphylococcus aureus; [26]): 1.56 µg/mL (≈ 1.42 µM); MIC (Mycoplasma gallisepticum; [27]): 0.78 µg/mL (≈ 0.71 µM); MIC (Mycoplasma hyorhinis; Mycoplasma): 6.25 µg/mL (≈ 5.69 µM)
CCC1OC(=O)CC(O)C(C)C(OC2OC(C)C(O)C(N(C)C)C2O)C(CC2OCCO2)CC(C)C(=O)C=CC(C)=CC1COC1OC(C)C(O)C(OC)C1OC (stereo not shown) [Compound 74] | 0.5 µg/mL (≈ 0.613 µM) | 1 µg/mL (≈ 1.23 µM) | 2 µg/mL (≈ 2.45 µM) | 0.5 µg/mL (≈ 0.613 µM) | 0.5 µg/mL (≈ 0.613 µM) | 0.25 µg/mL (≈ 0.306 µM) | – | 8 µg/mL (≈ 9.8 µM) | – | – | 3.12 µg/mL (≈ 3.82 µM) | 6.25 µg/mL (≈ 7.66 µM) | 25 µg/mL (≈ 30.6 µM) | – | – | 3.12 µg/mL (≈ 3.82 µM) | 6.25 µg/mL (≈ 7.66 µM) | – | – | 8 µg/mL (≈ 9.8 µM) | MIC ([8]; Streptococcus pneumoniae): 0.25 µg/mL (≈ 0.306 µM); MIC ([10]; Haemophilus influenzae): 32 µg/mL (≈ 39.2 µM); MIC ([11]; Haemophilus influenzae, R252): 32 µg/mL (≈ 39.2 µM); MIC ([13]; Pasteurella multocida, 60A): 50 µg/mL (≈ 61.3 µM); MIC ([14]; Pasteurella, 22C): 50 µg/mL (≈ 61.3 µM); MIC (Mycoplasma hyorhinis; Mycoplasma): 50 µg/mL (≈ 61.3 µM); MIC (Mycoplasma hyopneumoniae): 1.56 µg/mL (≈ 1.91 µM); ED50 ([15]; C203, sc, subcutaneous, read-out: ED50, Subcutaneous): 3.3 mg/kg; ED50 ([15]; C203, oral, read-out: ED50, Oral): > 25 mg/kg
CCC1OC(=O)CC(O)C(C)C(OC2OC(C)C(OC3CC(C)(O)C(O)C(C)O3)C(N(C)C)C2O)C(CCOC(C(F)(F)F)C(F)(F)F)CC(C)C(=O)C=CC(C)=CC1COC1OC(C)C(O)C(OC)C1OC (stereo not shown) [Compound 19, 20-DH-20-O-[2,2,2-Trifluoro-1-(trifluormethyl)ethyl]tylosin] | 4 µg/mL (≈ 3.74 µM) | 4 µg/mL (≈ 3.74 µM) | 4 µg/mL (≈ 3.74 µM) | 4 µg/mL (≈ 3.74 µM) | 4 µg/mL (≈ 3.74 µM) | – | 32 µg/mL (≈ 30 µM) | > 128 µg/mL | > 128 µg/mL | > 128 µg/mL | 12.5 µg/mL (≈ 11.7 µM) | > 50 µg/mL | > 50 µg/mL | > 50 µg/mL | > 50 µg/mL | 3.12 µg/mL (≈ 2.92 µM) | 12.5 µg/mL (≈ 11.7 µM) | 8 µg/mL (≈ 7.49 µM) | > 25 µg/mL | > 128 µg/mL | MIC ([6]; Staphylococcus epidermidis EPI2, agar dilution, read-out: MIC): 2 µg/mL (≈ 1.87 µM); MIC (Mycoplasma hyorhinis; [24]): > 50 µg/mL
CCC1OC(=O)CC(O)C(C)C(OC2OC(C)C(OC3CC(C)(O)C(O)C(C)O3)C(N(C)C)C2O)C(CCOc2cccc(N(C)C)c2)CC(C)C(=O)C=CC(C)=CC1COC1OC(C)C(O)C(OC)C1OC (stereo not shown) [Compound 16, 20-DH-20-O-[m-(N,N-Dimethylamino)phenyl]tylosin] | 1 µg/mL (≈ 0.964 µM) | 1 µg/mL (≈ 0.964 µM) | – | 1 µg/mL (≈ 0.964 µM) | 1 µg/mL (≈ 0.964 µM) | 1 µg/mL (≈ 0.964 µM) | 8 µg/mL (≈ 7.71 µM) | > 128 µg/mL | – | > 128 µg/mL | – | 50 µg/mL (≈ 48.2 µM) | > 50 µg/mL | > 50 µg/mL | > 50 µg/mL | – | – | 1 µg/mL (≈ 0.964 µM) | > 25 µg/mL | 64 µg/mL (≈ 61.7 µM) | MIC ([3]; Staphylococcus aureus X400, methicillin-resistant strain, agar dilution, read-out: MIC): 2 µg/mL (≈ 1.93 µM); MIC ([10]; Haemophilus influenzae): 128 µg/mL (≈ 123 µM); MIC (Staphylococcus aureus; [26]): 1.56 µg/mL (≈ 1.5 µM); MIC (Mycoplasma gallisepticum; [27]): 1.56 µg/mL (≈ 1.5 µM); MIC (Mycoplasma synoviae; [30]): 6.25 µg/mL (≈ 6.03 µM); MIC (Mycoplasma hyorhinis; Mycoplasma): 50 µg/mL (≈ 48.2 µM)
CCC1OC(=O)CC(O)C(C)C(OC2OC(C)C(OC3CC(C)(O)C(O)C(C)O3)C(N(C)C)C2O)C(CCF)CC(C)C(=O)C=CC(C)=CC1COC1OC(C)C(O)C(OC)C1OC (stereo not shown) [Compound 8, 20-DH-DO-20-Fluoro-tylosin] | 1 µg/mL (≈ 1.09 µM) | 1 µg/mL (≈ 1.09 µM) | 2 µg/mL (≈ 2.17 µM) | 1 µg/mL (≈ 1.09 µM) | 1 µg/mL (≈ 1.09 µM) | 1 µg/mL (≈ 1.09 µM) | – | > 128 µg/mL | > 128 µg/mL | – | 1.56 µg/mL (≈ 1.7 µM) | > 50 µg/mL | > 50 µg/mL | > 50 µg/mL | > 50 µg/mL | 1.56 µg/mL (≈ 1.7 µM) | – | 4 µg/mL (≈ 4.35 µM) | > 25 µg/mL | > 128 µg/mL | MIC ([8]; Streptococcus pneumoniae): 64 µg/mL (≈ 69.6 µM); MIC ([11]; Haemophilus influenzae, R252): 128 µg/mL (≈ 139 µM); MIC (Mycoplasma synoviae; [30]): 12.5 µg/mL (≈ 13.6 µM); MIC (Mycoplasma hyorhinis; [24]): > 50 µg/mL
